# Experimental data: patent publication US12667546B2, “Methods for manipulating cell state transitions in cancer” (AGENCY FOR SCIENCE, TECHNOLOGY AND RESEARCH, priority 2018, dated 2026)
# Entries after “also recorded” stand apart in the source; their conditions may differ.
# Tests used:
# NAMEC8 and BC2.2 = assay: Gene expression of ER target genes; format: cell-based, human
# Protocol: (§1) Cells were rinsed twice in ice-cold PBS. Total RNA was extracted using Trizol (Invitrogen) and column-purified with RNeasy kits (Qiagen). cDNA synthesis was performed with 500 ng of total RNA at 37° C. for 2 h using the SuperScript III First-Strand Synthesis System (Thermo Fisher Scientific), and subsequently diluted 5-fold. mRNA levels were measured with gene-specific primers listed below using the ABI Prism 7900HT Sequence Detection System 2.2 (Applied Biosystems). Results were normalized to GAPDH and analyzed using SDS 2.2 software.
# NAMEC8 [1] = assay: Cell morphology of treated NAMEC8; format: cell-based, human; conditions: bexarotene, TTNPB, SGC-CBP30, UNC0642, A-485 1 μM, LLY-283, GSK591 20 nM, C-IN-1 500 nM
# Summary of the method: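 HMLE cells immortalized with hTERT and SV-40 Large T, differentially trypsinized (0.05% trypsin, 1 min) at 50% confluency and replated at ~200 cells/well; wells screened for stably propagating mesenchymal-morphology populations. NAMEC8 is non-clonal, from at least 200 mesenchymal cells; maintained in MEGM.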
# NAMEC8 [2] = assay: Expression of EMT and lineage markers (qRT-PCR, immunoblot, immunofluorescence) in NAMEC8; format: cell-based, human
# Summary of the method: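 qRT-PCR on Trizol/RNeasy RNA (500 ng into cDNA, 37 °C 2 h), normalized to GAPDH. Immunoblots used 50-80 μg RIPA lysate on 4-12% Bis-Tris gels with ECL detection. Immunofluorescence was on paraformaldehyde-fixed, Triton-permeabilized cells with Alexa Fluor-488/-594 secondaries and DAPI, imaged by epifluorescence at 100-200×.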
# [3] = test system: BC2.2, BC22.1, BC29.1, MetBR 007-DR; assay: EMT and lineage markers in patient-derived triple-negative breast cancer cell lines; format: cell-based, human; conditions: patient-derived TNBC cell lines
# Protocol: (§2) Breast tissue biopsies from cancer patients were obtained from National Cancer Centre Singapore (NCCS) with patients' consent and under an IRB approved protocol (2015/2976). Tissue was digested with 1 mg/ml collagenase IV (Gibco) and 1 mg/ml dispase II (Thermo Fisher Scientific) in F12 media for 2 h while shaking in a 37° C. incubator. Cell suspension was then put through a cell strainer and centrifuged for 10 min at 1500 rpm. Cells were then washed twice and resuspended in media before seeding on irradiated 3T3 feeders as previously described. When confluent, sub-culturing was carried out by first lifting the feeders using 0.15% trypsin for 2 min. […]
# as §1
# (§3) Cells were harvested and scraped from culture dishes in ice-cold PBS. […] Protein concentrations were determined using Coomaisse Blue. […]
# BC24.1 and BC33.1 = assay: EMT and lineage markers in patient-derived ER+, luminal-like tumor cell lines; format: cell-based, human
# Protocol: as §2, §1, §3
# [4] = test system: NAMEC8 and SUM159, BC2.2 and BC22.1; assay: In vitro measurement of IC50 of 5-FU/PAC in bexarotene-treated cells; format: cell-based, human; conditions: bexarotene-treated vs DMSO cells
# Excerpt: Data were normalized to vehicle controls.
# [5] = test system: SERPINE1prom-Luc reporter in NAMEC8 cells; assay: Dual-Glo luciferase assay of SERPINE1prom-Luc reporter (FF/Ren); format: cell-based, human; conditions: Homo sapiens, 72 h, primary screen; NAMEC8-SERPINE1prom-Luc cells grown 3 days with compound; relative to DMSO; read-out: Avr FF/Renilla from DMSO
# Excerpt: pGreenFire1-mCMV was cut using ClaI and SpeI and gel purified. Promoter sequences of genes Zeb1, Serpine1, CDH1, CD24, CD44, CD166 were amplified from human genomic DNA with pre-designed primers containing ClaI and SpeI restriction cut sites using AccuPrime Taq DNA Polymerase (Thermo Fisher Scientific). PCR products were then digested with restriction enzymes and gel-purified. Vector was ligated with PCR insert using Quick Ligase (Fermentas) and transformed into Stb12 competent cells. Colonies were picked and inoculated into TB media with ampicillin. Plasmids were then isolated using a plasmid miniprep kit (Qiagen) and sent for sequencing (1 stBASE Laboratories). After verifying the plasmid sequence, transfection into HEK293 cells was carried out to generate lentivirus. Transfection was carried out using FuGENE 6 (Promega). Viral supernatant was harvested at 24 h and 48 h. NAMEC8 cells were then infected twice with virus using polybrene ([…]) and checked for good transduction efficiency using Dual-Glo Luciferase System (Promega).
# Stock plates of compound libraries were kindly prepared by GIS CHiP facility at 1 mM concentration in DMSO. NAMEC8-SERPINE1prom-Luc cells were seeded into 384 well plates at a density of 700 cells/well in a total volume of 50 μl, using an automated dispensing system (BioTek). 0.5 μl of compounds were then added to the wells the following day using a robotic pin transfer with a Bravo workstation (Agilent Technologies). Cells were then grown for 3 days and promoter-luciferase activity was measured using the Dual-Glo Luciferase System (Promega).
# Assay was carried out according to manufacturer's instructions. To measure luciferase activity in 384 well plates, media was first removed from the plate. Firefly luciferase activity was determined by adding 30 μl Dual-Glo Luciferase substrate (Promega) to the wells and incubated for 10 min before measuring luminescence using a TECAN M1000 Pro plate reader. 15 μl Dual-Glo Stop & Glo substrate was then added to the wells, incubated for 10 min and measuring luminescence on the plate reader to determine Renilla luciferase activity. Promoter luciferase activity is then calculated by taking Firefly luciferase over Renilla luciferase.
# SUM159 PACR cells = assay: Cell viability IC50 in SUM159 PACR cells; conditions: SUM159 PACR
smiles,measurement,setting,value
C=C(c1ccc(C(=O)O)cc1)c1cc2c(cc1C)C(C)(C)CCC2(C)C [Bexarotene],"expression of ER target genes (ABCA3, NRIP1, TFF1, CREB1)",NAMEC8 and BC2.2,strongly elevated
same,cell morphology,NAMEC8 [1],"dramatic change in morphology from scattered, spindle and fibroblastic-like cells to an epithelial-like morphology"
same,MET phenotype: induction and durability after drug withdrawal,NAMEC8 [2]; drugs removed for at least seven days,gradually reverted to a more mesenchymal cell phenotype; also recorded: could cause an MET
same,expression of EMT and basal/luminal markers,NAMEC8 [2]; transcript and protein,"downregulation of mesenchymal signature markers (ZEB1, SERPINE1, FN1, SLUG) and the concomitant gain of epithelial marker CDH1"
same,expression of EMT and lineage markers,[3],"increased the expression of E-cadherin, while reducing SLUG expression, to varying extents"
same,expression of epithelial/mesenchymal or luminal/basal markers,BC24.1 and BC33.1,no dramatic change in the expression of the epithelial/mesenchymal or luminal/basal markers
same,conferred susceptibility to 5-FU or paclitaxel,[4],4-6 folds
same,activity at 10 µM,[5],31%
same,sensitivity to 5-FU of bexarotene-treated PACR cells,SUM159 PACR cells,"gained sensitivity to an alternative chemotherapeutic drug, 5-flurouracil (5-FU)"
